In US20040254162A1, “Oxazolidinone derivatives as antimicrobials” (priority 2001, published 2004):
Converted amounts (≈) assume the structure as drawn. “And” between values parts separate entries of the source, which are not always exact repeats. Equal values may be shown once. Read-outs that look alike come from different tables or passages of the source.

What was measured:
[1] = Changes in MIC under different conditions: agar MIC; format: cell-based; details: strain not given
[2] = Changes in MIC under different conditions: broth MIC; format: cell-based; details: strain not given
anaerobic bacteria = test: Agar dilution method for anaerobic bacteria, summary; format: cell-based
Clostridium camis = test: Agar dilution MIC, anaerobes; format: cell-based
Clostridium perfringens = test: microbe, parasite or virus in culture; format: cell-based
Clostridium difficile = test: Agar dilution MIC, anaerobes; format: cell-based; details: for MIC Clostridium difficile: single isolates, anaerobic agar dilution
Bacteroides fragilis = test: Agar dilution MIC, anaerobes; format: cell-based
Prevotella bivia = test: Agar dilution MIC, anaerobes; format: cell-based
Prevotella intermedia = test: Agar dilution MIC, anaerobes; format: cell-based
[3] = system: Porphyromonas asaccharolytica; test: Agar dilution MIC, anaerobes; format: cell-based
Fusobacterium montiferum = test: Agar dilution MIC, anaerobes; format: cell-based
Porphyromonas gingivalis = test: Agar dilution MIC, anaerobes; format: cell-based
P. acnes = test: Agar dilution MIC, anaerobes; format: cell-based; details: for MIC P. acnes: single isolates, anaerobic agar dilution
[4] = system: Peptostreptococcus asaccharolyticus; test: Agar dilution MIC, anaerobes; format: cell-based; details: single isolates, anaerobic agar dilution
[5] = system: Peptostreptococcus tetradius; test: Agar dilution MIC, anaerobes; format: cell-based
Eubacterium leutum = test: Agar dilution MIC, anaerobes; format: cell-based
Fusobacterium necrogenes = test: Agar dilution MIC, anaerobes; format: cell-based
[6] = system: MRSA 1029/99 and MRSE 879/247; test: Inhibition of biofilm (slime) production; format: cell-based; details: trypticase soy broth with 2% glucose, overnight 37° C., safranin OD 544 nm
Protocol: To study the effect of Compound No. 16 on the inhibition of biofilm production, the following study was carried out. […] Bacterial suspensions (in triplicate) were exposed to doubling dilution of antibiotics and incubated overnight at 37° C. with constant shaking (100 rpm). Next day, after aspirating the medium, biofilm was stained with safranin (0.1%) for 1 hour at room temperature, washed with distilled water, tapped dried and stain extracted into 200 μl of 0.2M NaoH and OD measured at 544 nm. Relative inhibition was determined by using the formula: […]

MRSE 879 = test: Broth MIC, MRSE 879; format: cell-based
[7] = system: Mycobacterium avium intracellulare; test: Agar dilution method, mycobacteria; format: cell-based
[8] = system: Mycobacterium tuberculosis
S. aureus ATCC 25923 = test: MIC, agar incorporation method; details: agar incorporation
MRSA 15187 = test: MIC, agar incorporation method
MRSA 33 = test: MIC, agar incorporation method
Ent. faecalis ATCC 29212 = test: MIC, agar incorporation method
VRE 6A (Ent. faecium 6A) = test: MIC, agar incorporation method
Strep. pyog. ATCC 19615 = test: MIC, agar incorporation method
Strep. pne. ATCC 6303 = test: MIC, agar incorporation method
S. pneum AB 34 = test: MIC, agar incorporation method
[9] = system: MRSE 879 adherent bacteria; test: Sintered glass adherent bacteria model; details: MRSE 879, sintered glass adherent bacteria model
MRSA 562 [10] = test: In vivo activity against MRSA 562 (ED50); design: species or system Methicillin Resistant Staphylococcus aureus; details: IV; MRSA 562 infection
[11] = system: Prevotella (Bacteroides) disiens; test: Agar dilution MIC, anaerobes; format: cell-based; details: read-out: MIC Prevotella (Bacteroides) disiens
[12] = system: Prevotella melaninogenica; test: Agar dilution MIC, anaerobes; format: cell-based; details: Prevotella melaninogenica, read-out: MIC Prevotella melaninogenica
Fusobacterium nucleatum = test: Agar dilution MIC, anaerobes; format: cell-based; details: Fusobacterium nucleatum, read-out: MIC Fusobacterium nucleatum
Fusobacterium varium = test: Agar dilution MIC, anaerobes; format: cell-based; details: Fusobacterium varium, read-out: MIC Fusobacterium varium
[13] = system: Peptostreptococcus magnum; test: Agar dilution MIC, anaerobes; format: cell-based
[14] = system: Peptostreptococcus micros; test: Agar dilution MIC, anaerobes; format: cell-based; details: Parvimonas micra, read-out: MIC Peptostreptococcus micros
[15] = system: Peptostreptococcus prevotii; test: Agar dilution MIC, anaerobes; format: cell-based; details: Anaerococcus prevotii, read-out: MIC Peptostreptococcus prevotii
MRSA 562 [16] = test: MIC, agar incorporation method; details: Staphylococcus aureus, MRSA
G +ve bacteria = test: Summary of in vitro activity (MIC)
S. aureus = test: Summary of in vitro activity (MIC); details: Staphylococcus aureus
E. faecalis = test: Summary of in vitro activity (MIC); details: Enterococcus faecalis
S. pneumoniae = test: Summary of in vitro activity (MIC); details: Streptococcus pneumoniae
[17] = anaerobes, Wilkins Chalgren agar, 48 hour
[18] = single isolates, anaerobic agar dilution
[19] = single isolate, anaerobic agar dilution

Structure (SMILES): CC(=O)NC[C@H]1CN(c2ccc(N3CCN(Cc4ccc([N+](=O)[O-])o4)CC3)c(F)c2)C(=O)O1.Cl [Compound No. 16]
- Agar MIC [1]: 2 µg/mL
- Broth MIC +50% Sheep serum [2]: 2 µg/mL
- Broth MIC Normal MH broth [2]: 2 µg/mL
- Geometric Mean (anaerobic bacteria; anaerobes): 0.037 µg/mL
- MIC Range (anaerobic bacteria; anaerobes): 0.004 to 1 µg/mL
- MIC50 (anaerobic bacteria; [17]): 0.032 µg/mL
- MIC90 (anaerobic bacteria; [17]): 0.25 µg/mL
- MIC Clostridium camis (Clostridium camis; [18]): 0.03 µg/mL and 0.016 µg/mL
- MIC Clostridium perfringens (Clostridium perfringens; [18]): 0.03 µg/mL
- MIC Clostridium difficile (Clostridium difficile): 0.03 µg/mL
- MIC Bacteroides fragilis (Bacteroides fragilis; [18]): 0.03 µg/mL and 0.06 µg/mL
- MIC Prevotella bivia (Prevotella bivia; [19]): 0.125 µg/mL
- MIC Prevotella intermedia (Prevotella intermedia; [18]): 0.016 µg/mL
- MIC Porphyromonas asaccharolytica [3, 19]: <=.008 μg/ml
- MIC Fusobacterium montiferum (Fusobacterium montiferum; [18]): 0.03 µg/mL
- MIC Porphyromonas gingivalis (Porphyromonas gingivalis; [19]): <=.008 μg/ml
- MIC P. acnes (P. acnes): 1 µg/mL
- MIC Peptostreptococcus asaccharolyticus [4]: <=.008 μg/ml
- MIC Peptostreptococcus tetradius [5, 18]: <=.008 μg/ml
- MIC Eubacterium leutum (Eubacterium leutum; [18]): <=.008 μg/ml
- MIC Fusobacterium necrogenes (Fusobacterium necrogenes; [19]): <=.008 μg/ml
- Formation of biofilm inhibition [6]: occurs at lower a concentration
- broth MIC (MRSE 879; MRSE 879): 0.5 µg/mL
- MIC50 ([7]; Middlebrook 7H10 agar, 21 days): 8 µg/mL
- MIC90 ([7]; Middlebrook 7H10 agar, 21 days): 32 µg/mL
- G.M. ([7]; geometric mean MIC): 8.52 µg/mL
- MIC50 ([8]; Middlebrook 7H10 agar, 21 days): 4 µg/mL
- MIC90 ([8]; Middlebrook 7H10 agar, 21 days): 64 µg/mL
- G.M. ([8]; geometric mean MIC): 5.44 µg/mL
- MIC S. aureus 25923 (S. aureus ATCC 25923): 2 µg/mL
- MIC MRSA 15187 (MRSA 15187; agar incorporation): 4 µg/mL
- MIC MRSA 33 (MRSA 33; agar incorporation): 4 µg/mL
- MIC E. faecalis 29212 (Ent. faecalis ATCC 29212; agar incorporation): 2 µg/mL
- MIC VRE 6A (VRE 6A (Ent. faecium 6A); agar incorporation): 4 µg/mL
- MIC S. pyogenes 19615 (Strep. pyog. ATCC 19615; agar incorporation): 0.5 µg/mL
- MIC S. pneum 6303 (Strep. pne. ATCC 6303; agar incorporation): 1 µg/mL
- MIC S. pneum AB 34 (S. pneum AB 34; agar incorporation): 1 µg/mL
- concentration which would kill adherent bacteria [9]: 2 µg/mL

Structure (SMILES): CN[C@H](CC(C)C)C(=O)N[C@H]1C(=O)N[C@@H](CC(N)=O)C(=O)N[C@H]2C(=O)N[C@H]3C(=O)N[C@H](C(=O)N[C@H](C(=O)O)c4cc(O)cc(O)c4-c4cc3ccc4O)[C@H](O)c3ccc(c(Cl)c3)Oc3cc2cc(c3O[C@@H]2O[C@H](CO)[C@@H](O)[C@H](O)[C@H]2O[C@H]2C[C@](C)(N)[C@H](O)[C@H](C)O2)Oc2ccc(cc2Cl)[C@H]1O [Vancomycin]
- Agar MIC [1]: 1 µg/mL
- Broth MIC +50% Sheep serum [2]: 1 µg/mL
- Broth MIC Normal MH broth [2]: 1 µg/mL
- ED50 (mg/kg body weight) (MRSA 562 [10]): 8.84 (IV) mg/kg body weight
- MIC50 (anaerobic bacteria; 48 h): 32 µg/mL (≈ 22.1 µM)
- MIC90 (anaerobic bacteria; 48 h): 32 µg/mL (≈ 22.1 µM)
- Geometric Mean (anaerobic bacteria; anaerobes): 9.306 µg/mL
- MIC Range (anaerobic bacteria; anaerobes): 0.5 to 32 µg/mL
- MIC (Clostridium camis; Clostridium, read-out: MIC Clostridium camis): 2 µg/mL (≈ 1.38 µM)
- MIC (Clostridium perfringens; Clostridium perfringens, read-out: MIC Clostridium perfringens): 0.5 µg/mL (≈ 0.345 µM)
- MIC (Clostridium difficile; Clostridioides difficile, read-out: MIC Clostridium difficile, single isolates, anaerobic agar dilution): 2 µg/mL (≈ 1.38 µM)
- MIC Clostridium difficile (Clostridium difficile): 4 µg/mL (≈ 2.76 µM)
- MIC (Bacteroides fragilis; Bacteroides fragilis, read-out: MIC Bacteroides fragilis): > 16 µg/mL
- MIC [11]: > 16 µg/mL
- MIC (Prevotella bivia; Prevotella bivia, read-out: MIC Prevotella bivia): > 16 µg/mL
- MIC (Prevotella intermedia; Prevotella intermedia, read-out: MIC Prevotella intermedia): > 16 µg/mL
- MIC [12]: > 16 µg/mL
- MIC ([3]; Porphyromonas asaccharolytica, read-out: MIC Porphyromonas asaccharolytica): 2 µg/mL (≈ 1.38 µM)
- MIC (Fusobacterium montiferum; Fusobacterium, read-out: MIC Fusobacterium montiferum): > 16 µg/mL
- MIC (Fusobacterium nucleatum): > 16 µg/mL
- MIC (Porphyromonas gingivalis; Porphyromonas gingivalis, read-out: MIC Porphyromonas gingivalis): 8 µg/mL (≈ 5.52 µM)
- MIC (Fusobacterium varium): > 16 µg/mL
- MIC (P. acnes; Cutibacterium acnes, read-out: MIC P. acnes, single isolates, anaerobic agar dilution): 0.5 µg/mL (≈ 0.345 µM)
- MIC P. acnes (P. acnes): 1 µg/mL (≈ 0.69 µM)
- MIC ([13]; Peptostreptococcus, read-out: MIC Peptostreptococcus magnum, single isolates, anaerobic agar dilution): 0.5 µg/mL (≈ 0.345 µM)
- MIC Peptostreptococcus magnum [13, 18]: 0.25 µg/mL (≈ 0.173 µM)
- MIC [14]: 1 µg/mL (≈ 0.69 µM)
- MIC ([5]; Anaerococcus tetradius, read-out: MIC Peptostreptococcus tetradius): 1 µg/mL (≈ 0.69 µM)
- MIC [15]: 0.125 µg/mL (≈ 0.0863 µM)
- MIC (Eubacterium leutum; Eubacterium, read-out: MIC Eubacterium leutum): 1 µg/mL (≈ 0.69 µM)
- MIC (Fusobacterium necrogenes; Fusobacterium necrogenes, read-out: MIC Fusobacterium necrogenes): > 16 µg/mL
- MIC (MRSE 879; Staphylococcus epidermidis, MRSE, read-out: broth MIC): 1 µg/mL (≈ 0.69 µM)
- MIC (MRSA 15187; Staphylococcus aureus, MRSA, read-out: MIC MRSA 15187): 0.5 µg/mL (≈ 0.345 µM)
- MIC (MRSA 562 [16]): 0.5 µg/mL (≈ 0.345 µM)
- MIC (MRSA 562 [16]; read-out: MIC MRSA 562): 0.5 µg/mL (≈ 0.345 µM)
- MIC (MRSA 33; Staphylococcus aureus, MRSA, read-out: MIC MRSA 33): 0.5 µg/mL (≈ 0.345 µM)
- MIC (Ent. faecalis ATCC 29212; Enterococcus faecalis, ATCC29212, read-out: MIC E. faecalis 29212): 4 µg/mL (≈ 2.76 µM)
- MIC (VRE 6A (Ent. faecium 6A); Enterococcus, VRE, read-out: MIC VRE 6A): > 16 µg/mL
- MIC (Strep. pyog. ATCC 19615; Streptococcus pyogenes, ATCC19615, read-out: MIC S. pyogenes 19615): 0.5 µg/mL (≈ 0.345 µM)
- MIC (Strep. pne. ATCC 6303; Streptococcus pneumoniae, ATCC6303, read-out: MIC S. pneum 6303): 0.5 µg/mL (≈ 0.345 µM)
- MIC (S. pneum AB 34; Streptococcus pneumoniae, AB34, read-out: MIC S. pneum AB 34): 0.25 µg/mL (≈ 0.173 µM)
- MIC50 (G +ve bacteria): 0.5 µg/mL (≈ 0.345 µM)
- MIC90 (G +ve bacteria): 16 µg/mL (≈ 11 µM)
- MIC50 (S. aureus): 1 µg/mL (≈ 0.69 µM)
- MIC90 (S. aureus): 1 µg/mL (≈ 0.69 µM)
- MIC50 (E. faecalis): 16 µg/mL (≈ 11 µM)
- MIC90 (E. faecalis): 16 µg/mL (≈ 11 µM)
- MIC50 (S. pneumoniae): 0.5 µg/mL (≈ 0.345 µM)
- MIC90 (S. pneumoniae): 0.5 µg/mL (≈ 0.345 µM)
- MIC (S. pneumoniae; read-out: Geometric Mean of in vitro activity (MIC)): 0.39 µg/mL (≈ 0.269 µM)
- concentration which would kill adherent bacteria [9]: 8 µg/mL
